The text below walks through data of paper PMC5218480 (PLoS ONE, 2017).

The assay has as its system MV-4-11 cells. The experiment in a line: Gene expression microarray analysis (Affymetrix PrimeView) and GSEA. Format: cell-based, human. More on the design: RFU PODN (11730768_x_at) / Fold change /veh PODN (11730768_x_at) / RFU LINC00158 (11744669_a_at) / Fold change /veh LINC00158 (11744669_a_at) / RFU DUSP10 (11751237_a_at) / Fold change /veh DUSP10 (11751237_a_at) / RFU ID3 (11757404_x_at) / Fold change /veh ID3 (11757404_x_at) / RFU PLEKHG5 (11737974_s_at) / Fold change /veh PLEKHG5 (11737974_s_at) / RFU LRRC4B (11730491_at) / Fold change /veh LRRC4B (11730491_at) / RFU GIMAP4 (11747438_a_at) / Fold change /veh GIMAP4 (11747438_a_at) / RFU KRT8 (11758183_x_at) / Fold change /veh KRT8 (11758183_x_at) / RFU CNN1 (11734310_a_at) / Fold change /veh CNN1 (11734310_a_at) / RFU VPS37D (11726825_at) / Fold change /veh VPS37D (11726825_at) / RFU C10orf10 (11716522_x_at) / Fold change /veh C10orf10 (11716522_x_at) / RFU KIR2DL2 /// KIR2DL4 /// KIR2DL5A /// KIR2DL5B /// KIR2DS1 /// KIR2DS2 /// KIR2DS3 /// KIR2DS4 /// KIR3DL3 /// KIR3DL3 /// KIR3DS1 (11738374_at) / Fold change /veh KIR2DL2 /// KIR2DL4 /// KIR2DL5A /// KIR2DL5B /// KIR2DS1 /// KIR2DS2 /// KIR2DS3 /// KIR2DS4 /// KIR3DL3 /// KIR3DL3 /// KIR3DS1 (11738374_at) / RFU C1QL1 (11718748_at) / Fold change /veh C1QL1 (11718748_at) / RFU TMPRSS4 (11747572_a_at) / Fold change /veh TMPRSS4 (11747572_a_at) / RFU HAMP (11756126_x_at) / Fold change /veh HAMP (11756126_x_at) / RFU RNFT2 (11725882_a_at) / Fold change /veh RNFT2 (11725882_a_at) / RFU NR4A2 (11747474_a_at) / Fold change /veh NR4A2 (11747474_a_at) / RFU ABCC12 (11746883_a_at) / Fold change /veh ABCC12 (11746883_a_at) / RFU TMEM136 (11760407_x_at) / Fold change /veh TMEM136 (11760407_x_at) / RFU CLDN22 /// WWC2 (11732394_at) / Fold change /veh CLDN22 /// WWC2 (11732394_at) / RFU HLA-DPB1 (11760878_x_at) / Fold change /veh HLA-DPB1 (11760878_x_at) / RFU SPINT1 (11716480_a_at) / Fold change /veh SPINT1 (11716480_a_at) / RFU GAP43 (11754022_s_at) / Fold change /veh GAP43 (11754022_s_at) / RFU A4GNT (11735810_at) / Fold change /veh A4GNT (11735810_at) / RFU PRB3 (11715151_x_at) / Fold change /veh PRB3 (11715151_x_at) / RFU TUBB4B (11761932_at) / Fold change /veh TUBB4B (11761932_at) / RFU CAPN14 (11732068_a_at) / Fold change /veh CAPN14 (11732068_a_at) / RFU TMCC2 (11721928_a_at) / Fold change /veh TMCC2 (11721928_a_at) / RFU IRGQ (11745062_a_at) / Fold change /veh IRGQ (11745062_a_at) / RFU FAM174B (11720279_a_at) / Fold change /veh FAM174B (11720279_a_at) / RFU TMPRSS4 (11748680_a_at) / Fold change /veh TMPRSS4 (11748680_a_at) / RFU FAM212B (11763350_a_at) / Fold change /veh FAM212B (11763350_a_at) / RFU PLEKHG5 (11743358_a_at) / Fold change /veh PLEKHG5 (11743358_a_at) / RFU ZSCAN30 (11745921_a_at) / Fold change /veh ZSCAN30 (11745921_a_at) / RFU CMKLR1 (11741424_a_at) / Fold change /veh CMKLR1 (11741424_a_at) / RFU LOC101060620 /// MAPK8IP1 (11723275_at) / Fold change /veh LOC101060620 /// MAPK8IP1 (11723275_at) / RFU SPTSSB (11747773_x_at) / Fold change /veh SPTSSB (11747773_x_at) / RFU PRSS12 (11739890_at) / Fold change /veh PRSS12 (11739890_at) / RFU BIN1 (11741810_x_at) / Fold change /veh BIN1 (11741810_x_at) / RFU WNT11 (11732464_a_at) / Fold change /veh WNT11 (11732464_a_at) / RFU C10orf10 (11716521_a_at) / Fold change /veh C10orf10 (11716521_a_at) / RFU C5orf56 (11738089_at) / Fold change /veh C5orf56 (11738089_at) / RFU CYB561 (11721691_x_at) / Fold change /veh CYB561 (11721691_x_at) / RFU ANKRD19P (11752326_a_at) / Fold change /veh ANKRD19P (11752326_a_at) / RFU OR2T12 /// OR2T33 /// OR2T8 (11738714_s_at) / Fold change /veh OR2T12 /// OR2T33 /// OR2T8 (11738714_s_at) / RFU VCAN (11748164_a_at) / Fold change /veh VCAN (11748164_a_at) / RFU JSRP1 (11732532_at) / Fold change /veh JSRP1 (11732532_at) / RFU KRTAP10-11 (11738290_x_at) / Fold change /veh KRTAP10-11 (11738290_x_at) / RFU MYO3A (11730013_a_at) / Fold change /veh MYO3A (11730013_a_at) / RFU EBF3 (11725865_a_at) / Fold change /veh EBF3 (11725865_a_at) / RFU CAMK2N1 (11719241_x_at) / Fold change /veh CAMK2N1 (11719241_x_at) / RFU C5orf56 (11738088_a_at) / Fold change /veh C5orf56 (11738088_a_at) / RFU OLFML3 (11715873_a_at) / Fold change /veh OLFML3 (11715873_a_at) / RFU LOC100653217 /// NTM (11731650_a_at) / Fold change /veh LOC100653217 /// NTM (11731650_a_at) / RFU MAPK11 (11762145_a_at) / Fold change /veh MAPK11 (11762145_a_at) / RFU FIZ1 (11724087_x_at) / Fold change /veh FIZ1 (11724087_x_at) / RFU OASL (11726364_x_at) / Fold change /veh OASL (11726364_x_at) / RFU SOX15 (11748057_x_at) / Fold change /veh SOX15 (11748057_x_at) / RFU CD79A (11719716_a_at) / Fold change /veh CD79A (11719716_a_at) / RFU HIST1H1D (11736915_at) / Fold change /veh HIST1H1D (11736915_at) / RFU CASKIN2 (11723855_a_at) / Fold change /veh CASKIN2 (11723855_a_at) / RFU LOC730098 (11760151_x_at) / Fold change /veh LOC730098 (11760151_x_at) / RFU OR4N2 (11742367_at) / Fold change /veh OR4N2 (11742367_at) / RFU PRRT2 (11749266_a_at) / Fold change /veh PRRT2 (11749266_a_at) / RFU SNX32 (11753110_a_at) / Fold change /veh SNX32 (11753110_a_at) / RFU CDHR5 (11726645_a_at) / Fold change /veh CDHR5 (11726645_a_at) / RFU RCAN1 (11760418_a_at) / Fold change /veh RCAN1 (11760418_a_at) / RFU FAM167A (11723789_a_at) / Fold change /veh FAM167A (11723789_a_at) / RFU FAM26E (11764081_at) / Fold change /veh FAM26E (11764081_at) / RFU ISYNA1 (11749810_s_at) / Fold change /veh ISYNA1 (11749810_s_at) / RFU ACY1 (11761880_at) / Fold change /veh ACY1 (11761880_at) / RFU 11764098_at / Fold change /veh 11764098_at / RFU SAMD14 (11745864_x_at) / Fold change /veh SAMD14 (11745864_x_at) / RFU NPB (11741838_a_at) / Fold change /veh NPB (11741838_a_at) / RFU TMPRSS6 (11731388_a_at) / Fold change /veh TMPRSS6 (11731388_a_at) / RFU KRTAP10-2 (11738614_at) / Fold change /veh KRTAP10-2 (11738614_at) / RFU ARHGAP8 /// PRR5-ARHGAP8 (11727945_x_at) / Fold change /veh ARHGAP8 /// PRR5-ARHGAP8 (11727945_x_at) / RFU KRTAP5-7 /// NADSYN1 (11734609_at) / Fold change /veh KRTAP5-7 /// NADSYN1 (11734609_at) / RFU RASL12 (11751679_a_at) / Fold change /veh RASL12 (11751679_a_at) / RFU CDKN2B (11736163_a_at) / Fold change /veh CDKN2B (11736163_a_at) / RFU PRF1 (11729649_at) / Fold change /veh PRF1 (11729649_at) / RFU, ZNF638 /// ZNF638-IT1 / Fold change vs veh, ZNF638 /// ZNF638-IT1 / RFU, PANK3 / Fold change vs veh, PANK3 / RFU, SH3YL1 / Fold change vs veh, SH3YL1 / RFU, ZEB2 / Fold change vs veh, ZEB2 / RFU, NRIP1 / Fold change vs veh, NRIP1 / RFU, PTTG1IP / Fold change vs veh, PTTG1IP / RFU, CAPN2 / Fold change vs veh, CAPN2 / RFU, MED14 / Fold change vs veh, MED14 / RFU, SNORA58 / Fold change vs veh, SNORA58 / RFU, C1orf63 / Fold change vs veh, C1orf63 / RFU, LRRFIP1 / Fold change vs veh, LRRFIP1 / RFU, NDUFAF7 / Fold change vs veh, NDUFAF7 / RFU, SLC12A2 / Fold change vs veh, SLC12A2 / RFU, IBTK / Fold change vs veh, IBTK / RFU, ESF1 / Fold change vs veh, ESF1 / Fold change vs veh, TMEM50B / RFU, TAOK1 / Fold change vs veh, TAOK1 / RFU, ACBD3 / Fold change vs veh, ACBD3 / RFU, TMA16 / Fold change vs veh, TMA16 / RFU, RWDD3 / Fold change vs veh, RWDD3 / RFU, BCAT1 / Fold change vs veh, BCAT1 / RFU, EDEM3 / Fold change vs veh, EDEM3 / RFU, TMEM33 / Fold change vs veh, TMEM33 / RFU, WDR75 / Fold change vs veh, WDR75 / RFU, AHCTF1 / Fold change vs veh, AHCTF1 / RFU, TFRC / Fold change vs veh, TFRC / RFU, ZDHHC17 / Fold change vs veh, ZDHHC17 / RFU, NOM1 / Fold change vs veh, NOM1 / RFU, ARL8B / Fold change vs veh, ARL8B / RFU, ZBTB11 / Fold change vs veh, ZBTB11 / RFU, TAMM41 / Fold change vs veh, TAMM41 / RFU, KIAA1704 /// LOC100996395 / Fold change vs veh, KIAA1704 /// LOC100996395 / RFU, ING1 / Fold change vs veh, ING1 / RFU, TRMT61B / Fold change vs veh, TRMT61B / RFU, FUBP3 / Fold change vs veh, FUBP3 / RFU, TP53 / Fold change vs veh, TP53 / RFU, TNKS2 / Fold change vs veh, TNKS2 / RFU, ZFP14 / Fold change vs veh, ZFP14 / RFU, ACTR2 / Fold change vs veh, ACTR2 / RFU, PPP3R1 / Fold change vs veh, PPP3R1 / RFU, PIK3R1 / Fold change vs veh, PIK3R1 / RFU, HNRNPA1 / Fold change vs veh, HNRNPA1 / RFU, RNF170 / Fold change vs veh, RNF170 / RFU, ZNF28 / Fold change vs veh, ZNF28 / RFU, RNGTT / Fold change vs veh, RNGTT / RFU, OGT / Fold change vs veh, OGT / RFU, BRD1 / Fold change vs veh, BRD1 / RFU, MARS / Fold change vs veh, MARS / RFU, ZNF655 / Fold change vs veh, ZNF655 / RFU, FAHD1 / Fold change vs veh, FAHD1 / RFU, BDP1 / Fold change vs veh, BDP1 / RFU, LRRCC1 / Fold change vs veh, LRRCC1 / RFU, ARID1A / Fold change vs veh, ARID1A / RFU, ZNF146 / Fold change vs veh, ZNF146 / RFU, ZNF330 / Fold change vs veh, ZNF330 / RFU, GPN3 / Fold change vs veh, GPN3 / RFU, C9orf123 / Fold change vs veh, C9orf123 / RFU, N4BP2L2 / Fold change vs veh, N4BP2L2 / RFU, ARFIP1 / Fold change vs veh, ARFIP1 / RFU, FAM179B / Fold change vs veh, FAM179B / RFU, BCL10 / Fold change vs veh, BCL10 / RFU, UHRF1BP1L / Fold change vs veh, UHRF1BP1L / RFU, BET1 / Fold change vs veh, BET1 / RFU, CNOT2 / Fold change vs veh, CNOT2 / RFU, ZNF268 / Fold change vs veh, ZNF268 / Fold change vs veh, ZNF507 / RFU, DGCR2 / Fold change vs veh, DGCR2 / RFU, WDSUB1 / Fold change vs veh, WDSUB1 / Fold change vs veh, HSP90B1 /// MIR3652 / RFU, ADSS / Fold change vs veh, ADSS / RFU, GK / Fold change vs veh, GK / RFU, ZNF148 / Fold change vs veh, ZNF148 / RFU, TAF9 / Fold change vs veh, TAF9 / RFU, SLC1A5 / Fold change vs veh, SLC1A5 / RFU, SLMO2 / Fold change vs veh, SLMO2 / RFU, ABCC4 / Fold change vs veh, ABCC4 / RFU, LOC101060439 /// RAP1B / Fold change vs veh, LOC101060439 /// RAP1B / RFU, RFX7 / Fold change vs veh, RFX7 / RFU, GTPBP10 / Fold change vs veh, GTPBP10 / RFU, CNEP1R1 / Fold change vs veh, CNEP1R1 / RFU, BIVM-ERCC5 /// ERCC5 / Fold change vs veh, BIVM-ERCC5 /// ERCC5 / RFU, ILF3 / Fold change vs veh, ILF3 / RFU 11762660_at / Fold change /veh 11762660_at / RFU VCAN (11757783_s_at) / Fold change /veh VCAN (11757783_s_at) / RFU DDX43 (11728927_at) / Fold change /veh DDX43 (11728927_at) / RFU KRT8 (11758188_x_at) / Fold change /veh KRT8 (11758188_x_at) / RFU NKD1 (11759106_at) / Fold change /veh NKD1 (11759106_at) / RFU SRD5A1 (11742802_a_at) / Fold change /veh SRD5A1 (11742802_a_at) / RFU TPSAB1 /// TPSB2 (11721975_s_at) / Fold change /veh TPSAB1 /// TPSB2 (11721975_s_at) / RFU GSTM3 (11746129_a_at) / Fold change /veh GSTM3 (11746129_a_at) / RFU IL23R (11737362_x_at) / Fold change /veh IL23R (11737362_x_at) / RFU TMEM51 (11727254_a_at) / Fold change /veh TMEM51 (11727254_a_at) / RFU PIWIL2 (11732686_x_at) / Fold change /veh PIWIL2 (11732686_x_at) / RFU ORM1 (11744905_x_at) / Fold change /veh ORM1 (11744905_x_at) / RFU CCDC152 (11743942_at) / Fold change /veh CCDC152 (11743942_at) / RFU ECM1 (11717891_a_at) / Fold change /veh ECM1 (11717891_a_at) / RFU IL23R (11748794_a_at) / Fold change /veh IL23R (11748794_a_at) / RFU TNFAIP8L3 (11732012_x_at) / Fold change /veh TNFAIP8L3 (11732012_x_at) / RFU MBOAT4 (11741988_at) / Fold change /veh MBOAT4 (11741988_at) / RFU 11764193_at / Fold change /veh 11764193_at / RFU TMEM53 (11763286_at) / Fold change /veh TMEM53 (11763286_at) / RFU MAGEB2 (11727129_at) / Fold change /veh MAGEB2 (11727129_at) / RFU TMEM200A (11744735_a_at) / Fold change /veh TMEM200A (11744735_a_at) / RFU CCDC152 (11751479_a_at) / Fold change /veh CCDC152 (11751479_a_at) / RFU FAM211A (11726209_a_at) / Fold change /veh FAM211A (11726209_a_at) / RFU RGS16 (11746705_a_at) / Fold change /veh RGS16 (11746705_a_at) / RFU VCAN (11755009_s_at) / Fold change /veh VCAN (11755009_s_at) / RFU RHOB (11743442_s_at) / Fold change /veh RHOB (11743442_s_at) / RFU RGS16 (11720943_a_at) / Fold change /veh RGS16 (11720943_a_at) / RFU RGS16 (11720944_at) / Fold change /veh RGS16 (11720944_at) / RFU, VPS4B / Fold change vs veh, VPS4B / RFU, CREB1 / Fold change vs veh, CREB1 / RFU, DNAJC13 / Fold change vs veh, DNAJC13 / RFU, GNAQ / Fold change vs veh, GNAQ / RFU, CDK5R1 / Fold change vs veh, CDK5R1 / RFU, ZRANB3 / Fold change vs veh, ZRANB3 / RFU, CUL4A / Fold change vs veh, CUL4A / RFU, CCNY / Fold change vs veh, CCNY / RFU, UFL1 / Fold change vs veh, UFL1 / RFU, COG3 / Fold change vs veh, COG3 / RFU, DIAPH2 / Fold change vs veh, DIAPH2 / RFU, SKA2 / Fold change vs veh, SKA2 / RFU, AFF3 / Fold change vs veh, AFF3 / RFU, LMF1 / Fold change vs veh, LMF1 / RFU, IPO11 / Fold change vs veh, IPO11 / RFU, DFFB / Fold change vs veh, DFFB / RFU, FOXP1 / Fold change vs veh, FOXP1 / RFU, CARD8 / Fold change vs veh, CARD8 / RFU, STRN3 / Fold change vs veh, STRN3 / RFU, ADK / Fold change vs veh, ADK / RFU, RASSF2 / Fold change vs veh, RASSF2 / RFU, WIPF1 / Fold change vs veh, WIPF1 / RFU, LARP1B / Fold change vs veh, LARP1B / RFU, RASA1 / Fold change vs veh, RASA1 / RFU, RB1 / Fold change vs veh, RB1 / RFU, PPFIA1 / Fold change vs veh, PPFIA1 / RFU, MAT2A / Fold change vs veh, MAT2A / RFU, CCT5 / Fold change vs veh, CCT5 / RFU, WDR92 / Fold change vs veh, WDR92 / RFU, CUX1 / Fold change vs veh, CUX1 / RFU, TTC7A / Fold change vs veh, TTC7A / RFU, TMEM135 / Fold change vs veh, TMEM135 / RFU, DEPTOR / Fold change vs veh, DEPTOR / RFU, CPM / Fold change vs veh, CPM / RFU, DNAJB6 / Fold change vs veh, DNAJB6 / RFU, CACNA2D3 / Fold change vs veh, CACNA2D3 / RFU, DTX4 / Fold change vs veh, DTX4 / RFU, TFCP2 / Fold change vs veh, TFCP2 / RFU, GMCL1 /// GMCL1P1 / Fold change vs veh, GMCL1 /// GMCL1P1 / RFU, AEBP2 / Fold change vs veh, AEBP2 / RFU, SNHG1 /// SNORD22 /// SNORD25 /// SNORD26 /// SNORD27 /// SNORD28 /// SNORD29 /// SNORD31 / Fold change vs veh, SNHG1 /// SNORD22 /// SNORD25 /// SNORD26 /// SNORD27 /// SNORD28 /// SNORD29 /// SNORD31 / Fold change (Aza/veh), C12orf56 (ProbeSet 11735607_a_at) / Fold change (ACY-1035/veh), C12orf56 (ProbeSet 11735607_a_at) / Fold change (Aza/veh), FGFR1OP (ProbeSet 11751329_s_at) / Fold change (ACY-1035/veh), FGFR1OP (ProbeSet 11751329_s_at) / Fold change (Aza/veh), VPS36 (ProbeSet 11739960_a_at) / Fold change (ACY-1035/veh), VPS36 (ProbeSet 11739960_a_at) / RFU SYPL1 (11715823_x_at) / Fold change /veh SYPL1 (11715823_x_at) / RFU IGFBP7 (11715501_s_at) / Fold change /veh IGFBP7 (11715501_s_at) / RFU REEP3 (11722064_at) / Fold change /veh REEP3 (11722064_at) / RFU IGLL1 (11728026_x_at) / Fold change /veh IGLL1 (11728026_x_at): dose or concentration left out as unconfirmed. Particulars: ProbeSet 11715478_a_at; LIST B.

Consider `Nc1ncn([C@@H]2O[C@H](CO)[C@@H](O)[C@H]2O)c(=O)n1` [azacitidine], for which the “Fold change vs veh, TFRC” value was found to be 0.85.
